Experiments:
NB-4 [1] = experiment: Evaluated for mean value of the fluorescence intensity of CD11c-PE expressing NB4 cells at day 3; assay type: functional, Homo sapiens
[2] = biological target: T1, Retinoic acid receptor RXR-beta (Homo sapiens) (UniProt P28702); experiment: Agonist activity for Retinoid X receptor beta as photons in presence and absence of ligand; assay type: functional; parameters: unit not given here
T1 sequence (whole entry): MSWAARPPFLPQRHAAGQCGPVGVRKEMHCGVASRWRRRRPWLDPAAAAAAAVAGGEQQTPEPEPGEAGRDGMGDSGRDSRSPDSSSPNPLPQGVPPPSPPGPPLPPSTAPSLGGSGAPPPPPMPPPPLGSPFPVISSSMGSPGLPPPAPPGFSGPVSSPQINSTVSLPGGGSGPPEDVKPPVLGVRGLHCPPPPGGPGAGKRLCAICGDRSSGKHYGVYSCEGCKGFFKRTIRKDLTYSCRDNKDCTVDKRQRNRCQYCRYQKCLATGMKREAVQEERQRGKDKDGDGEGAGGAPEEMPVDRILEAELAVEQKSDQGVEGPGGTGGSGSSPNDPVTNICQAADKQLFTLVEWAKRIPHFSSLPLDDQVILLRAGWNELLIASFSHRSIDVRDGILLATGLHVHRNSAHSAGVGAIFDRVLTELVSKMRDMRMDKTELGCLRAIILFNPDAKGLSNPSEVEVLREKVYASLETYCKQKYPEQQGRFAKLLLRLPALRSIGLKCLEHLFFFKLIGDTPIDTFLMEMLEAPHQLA

[3] = biological target: T2, Retinoic acid receptor beta (Homo sapiens) (UniProt P10826); experiment: Agonist activity for Retinoic acid receptor beta as photons in presence and absence of ligand; assay type: functional; parameters: unit not given here
T2 sequence (whole entry): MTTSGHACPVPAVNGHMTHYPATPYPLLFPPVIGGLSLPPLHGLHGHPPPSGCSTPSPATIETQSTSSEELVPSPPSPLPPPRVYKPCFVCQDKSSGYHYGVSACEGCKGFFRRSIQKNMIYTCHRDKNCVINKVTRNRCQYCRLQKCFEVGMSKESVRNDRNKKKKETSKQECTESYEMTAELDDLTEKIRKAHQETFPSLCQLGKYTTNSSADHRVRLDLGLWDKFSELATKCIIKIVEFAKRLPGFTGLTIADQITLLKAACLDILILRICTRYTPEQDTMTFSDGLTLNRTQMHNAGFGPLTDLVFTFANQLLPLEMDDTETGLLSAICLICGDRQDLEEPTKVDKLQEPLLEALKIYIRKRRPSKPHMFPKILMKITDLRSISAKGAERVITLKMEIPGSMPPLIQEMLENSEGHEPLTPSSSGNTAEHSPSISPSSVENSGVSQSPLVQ

[4] = biological target: T3, Retinoic acid receptor alpha (Homo sapiens) (UniProt P10276); experiment: Agonist activity for Retinoic acid receptor alpha as photons in presence and absence of ligand; assay type: functional; parameters: unit not given here
T3 sequence (whole entry): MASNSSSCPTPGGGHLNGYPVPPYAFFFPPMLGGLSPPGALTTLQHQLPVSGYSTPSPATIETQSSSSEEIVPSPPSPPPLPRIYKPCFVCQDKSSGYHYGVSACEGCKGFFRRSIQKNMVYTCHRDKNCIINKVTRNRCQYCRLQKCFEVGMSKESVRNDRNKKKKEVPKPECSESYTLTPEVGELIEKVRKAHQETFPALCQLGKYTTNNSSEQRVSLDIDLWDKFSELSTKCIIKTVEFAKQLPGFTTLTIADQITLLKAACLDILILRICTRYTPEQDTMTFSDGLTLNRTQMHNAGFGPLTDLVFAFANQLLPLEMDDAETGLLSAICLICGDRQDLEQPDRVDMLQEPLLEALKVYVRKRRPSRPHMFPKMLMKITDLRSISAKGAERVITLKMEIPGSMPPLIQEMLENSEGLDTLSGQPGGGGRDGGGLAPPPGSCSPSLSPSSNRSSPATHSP

NB-4 [5] = experiment: Evaluated for mean value of the fluorescence intensity of CD11c-PE expressing NB4 cells at day 6; assay type: functional, Homo sapiens
[6] = biological target: T4, Retinoic acid receptor gamma (Homo sapiens) (UniProt P13631); experiment: Agonist activity for Retinoic acid receptor gamma as photons in presence and absence of ligand; assay type: functional; parameters: concentration or dose not given beside the values
T4 sequence (whole entry): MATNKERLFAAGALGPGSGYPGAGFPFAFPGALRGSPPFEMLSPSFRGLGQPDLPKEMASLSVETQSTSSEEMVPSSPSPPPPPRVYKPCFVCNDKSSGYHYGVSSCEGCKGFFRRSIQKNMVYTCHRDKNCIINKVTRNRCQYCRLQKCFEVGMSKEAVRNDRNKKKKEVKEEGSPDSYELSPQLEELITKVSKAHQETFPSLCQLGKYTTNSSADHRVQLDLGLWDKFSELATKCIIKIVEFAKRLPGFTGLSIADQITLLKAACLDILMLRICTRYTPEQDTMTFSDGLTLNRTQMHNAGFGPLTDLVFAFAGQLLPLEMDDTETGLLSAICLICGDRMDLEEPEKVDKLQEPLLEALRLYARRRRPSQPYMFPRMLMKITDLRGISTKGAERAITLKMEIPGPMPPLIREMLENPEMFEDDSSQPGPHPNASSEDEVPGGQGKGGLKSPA

NB-4 [7] = experiment: Ability to induce maturation and cell death of NB4 cells labelled with V-FITC on day 6; assay type: functional, Homo sapiens; parameters: concentration or dose not given beside the values
NB-4 [8] = experiment: Ability to induce maturation and cell death of NB4 cells labelled with V-FITC on day 3; assay type: functional, Homo sapiens; parameters: concentration or dose not given beside the values

| SMILES | Activity (NB-4 [1]) | Activity [2] | Activity [3] | Activity [4] | Activity (NB-4 [5]) | Activity [6] | Activity (NB-4 [7]) | Activity (NB-4 [8]) |
| --- | --- | --- | --- | --- | --- | --- | --- | --- |
| C=C(/C=C/C1=C(C)CCCC1(C)C)C/C=C/C(C)=C/C(=O)O | 117 | 5.8 | 7.2 | 7 | 163 | 3.3 | 56% | 18% |
| C=C(/C=C/c1ccccc1)C/C=C/C(C)=C\C(=O)O | 15 | 13.5 | 4 | 4.9 | 12 | 4.6 | 8% | 9% |
| C=C(/C=C/C1=C(C)CCCC1(C)C)C/C=C/C=C\C(=O)O | 33 | 2 | 13.1 | 7.1 | 35 | 7.9 | 12% | 10% |
| C/C(=C\c1ccc(C(=O)O)cc1)c1ccc2c(c1)C(C)(C)CCC2(C)C | 106 |  |  |  | 170 |  | 35% | 14% |
| COC(=O)\C=C(C)/C(C#N)=C/C=C(C)/C=C/C1=C(C)CCCC1(C)C | 10 | 1.6 | 6.7 | 1.3 | 10 | 3 | 8% | 13% |
| CC1=C(/C=C/C(C)=C/C=C(C#N)/C(C)=C\C(=O)O)C(C)(C)CCC1 | 88 | 2.1 | 14.6 | 23.5 | 126 | 8.9 | 20% | 9% |
| CC1=C(/C=C/C(C)=C/C=C/C(C)=C/C(=O)O)C(C)(C)CCC1 [TRETINOIN] | 110 |  |  |  | 197 |  | 50% | 14% |
| C=C(/C=C/C1=C(C)CCCC1(C)C)C/C=C/C(C)=C\C(=O)O | 38 | 2.1 | 14.5 | 11.8 | 43 | 10.9 | 14% | 11% |
| CC1=C(/C=C/C(C)=C\C=C\C(C)=C\C(=O)O)C(C)(C)CCC1 |  | 14.5 |  |  |  |  |  |  |
| CC1(C)CCC(C)(C)c2cc(C3(c4ccc(C(=O)O)cc4)OCCO3)ccc21 | 22 |  |  |  | 23 |  | 11% | 11% |
| CC1=C(/C=C/C(C)=C/C=C(\C#N)C(C)=C(C(=O)O)C(=O)O)C(C)(C)CCC1 | 77 | 3 | 17.9 | 22.2 | 64 | 11.7 | 12% | 11% |

From ChEMBL document CHEMBL1137160, “Structure-activity relationships of methylene or terminal side chain modified retinoids on the differentiation and cell death signaling in NB4 promyelocytic leukemia cells” (2004)
